Assay results: patent US20100055099A1, “Diagnostics and Treatments for VEGF-Independent Tumors” (priority 2008, published 2010)

Experiments:
[1] = tested on: primary epithelial cells from PyMT.epiVEGF+/+ tumors; experiment: Cell migration assay, response to HGF; format: cell-based, mouse; conditions: HGF 40 ng/ml, 18 hours, primary tumors from PyMT.epiVEGF+/+ mice
Excerpt: (§1) Primary epithelial cells, designated as K0.1, K0.2, K0.3 and K0.4, were isolated from PyMT.epiVEGF−/− tumors. Primary epithelial cells, designated as WT. 1, WT.2, WT.3, WT.4 and WT.5, were isolated from in PyMT.epiVEGF+/+ tumors. WT.c is epithelial cells from a cell line created from PyMT.VEGF+/+.loxP tumor. KO.c is epithelial cells from a cell line created from PyMT.VEGF+/+.loxP tumors wherein VEGF was knocked out by Adenovirus expressing Cre-recombinase (Adeno-Cre) infection in vitro. Epithelial-specific Cre-loxP recombination was confirmed through immunocytochemistry with anti-Cre recombinase antibody. VEGF expression level was not detectable in Ko.c cell lines by ELISA.
(§2) Migration assays were performed using BD Falcon™ FluoroBlok™ 24-Multiwell Insert System, 8 um pore size (BD Biosciences, Bedford, Mass.). The plates were coated with 5 ug/ml Fibronectin (Sigma) for 2 hours at 37° C. Cells in 300 μl assay medium (0.5% FBS, DMEM/F12) were added to the upper chamber. HGF 40 ng/ml in 750 ul assay medium was added to the lower chamber, and cells were incubated at 37° C. for 18 hours. Cells on the lower surface were fixed in MeOH and stained with YO-PRO-1 (Molecular Probes, Eugene, Oreg.). Images were acquired and analyzed using the ImageXpress Micro platform (MDS Analytical; Sunnyvale, Calif.). The Count Nuclei application in Metamorph was used to identify and count migrated cells.

WT.c cell line = experiment: Cell migration assay, response to HGF; format: cell-based, mouse; conditions: HGF 40 ng/ml, 18 hours, WT.c cells
Excerpt: as §1, §2

KO.c cell line = experiment: Cell migration assay, response to HGF; format: cell-based, mouse; conditions: HGF 40 ng/ml, 18 hours, KO.c cells
Excerpt: as §1, §2

[2] = tested on: primary epithelial cells from PyMT.epiVEGF−/− tumors; experiment: Cell migration assay, response to HGF; format: cell-based, mouse; conditions: HGF 40 ng/ml, 18 hours, primary tumors from PyMT.epiVEGF−/− mice
Excerpt: as §1, §2

xenograft models = conditions: most xenograft models tested; cited from earlier work

Substance | average increase in migratory response to HGF [1] [fold] | fold increase in migration with HGF treatment (WT.c cell line) [fold] | fold increase in migration with HGF treatment (KO.c cell line) [fold] | average increase in migratory response to HGF [2] [fold] | tumor angiogenesis (xenograft models) | tumor growth (xenograft models)
HGF: hepatocyte growth factor, added at 40 ng/ml to the lower chamber in the migration assay | 1.8 | 1.5 | 2.3 | 2.5 |  | 
bevacizumab: humanized anti-VEGF monoclonal antibody |  |  |  |  | reduced | significantly inhibited
